# According to publication PMC6599079 (Nature Communications, 2019):
# Read-outs that look alike come from different tables or passages of the source. Square brackets hold non-standard residues; d marks the D form. Ends that are not written are not given here. Met(O) = CS(=O)CC[C@H](N)C(=O)O
# Key:
# splenic CD8^+ T cells = assay type: in vivo, C57BL/6 mice; conditions: for IFNg#: spleen; for CTL response, ICS: file clean_CTLresponse_ICS_new, tissue not given
# H-2K^b = target: T1, H-2K^b (Mus musculus, UniProt P01901); assay: biochemical; assay type: binding
# T1 sequence (P01901 22-369): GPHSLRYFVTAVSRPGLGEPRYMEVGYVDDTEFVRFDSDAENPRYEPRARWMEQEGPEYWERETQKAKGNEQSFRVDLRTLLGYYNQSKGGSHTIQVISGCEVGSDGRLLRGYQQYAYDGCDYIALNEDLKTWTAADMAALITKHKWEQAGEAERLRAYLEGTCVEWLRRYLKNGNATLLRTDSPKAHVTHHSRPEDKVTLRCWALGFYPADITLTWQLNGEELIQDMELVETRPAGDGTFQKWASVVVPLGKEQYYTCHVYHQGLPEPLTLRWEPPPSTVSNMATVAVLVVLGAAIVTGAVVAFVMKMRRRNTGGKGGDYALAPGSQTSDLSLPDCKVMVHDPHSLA
# T1 sequence (P01887 21-119 partner): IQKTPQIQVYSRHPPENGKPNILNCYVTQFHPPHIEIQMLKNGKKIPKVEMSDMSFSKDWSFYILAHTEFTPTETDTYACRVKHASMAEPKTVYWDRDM
# H-2D^b = target: T2, H-2D^b (Mus musculus, UniProt P01899); assay: biochemical; assay type: binding
# T2 sequence (P01899 25-362): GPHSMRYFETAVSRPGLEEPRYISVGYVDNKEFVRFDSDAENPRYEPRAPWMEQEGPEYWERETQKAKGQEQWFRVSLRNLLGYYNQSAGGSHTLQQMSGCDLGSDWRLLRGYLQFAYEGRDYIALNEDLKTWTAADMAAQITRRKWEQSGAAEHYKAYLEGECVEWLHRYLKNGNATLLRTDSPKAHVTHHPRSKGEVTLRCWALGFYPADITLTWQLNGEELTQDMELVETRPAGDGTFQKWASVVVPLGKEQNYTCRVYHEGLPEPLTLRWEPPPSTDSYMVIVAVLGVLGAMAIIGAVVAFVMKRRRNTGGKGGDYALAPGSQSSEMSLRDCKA
# T2 sequence (P01887 21-119 partner): T1 sequence (P01887 21-119 partner)
# [1] = target: H-2b MHC class I (allele not given); assay: Classical competition assay of peptide binding to purified MHC; restricting allele not printed in the epitope label of this file; design: species or system mouse; conditions: epitope label without allele; file clean_file9_IC50; unit inferred
# [2] = 1st EXP, number of IFNg+ CD8 cells = IFNg% (w/o background) x CD8# 5103400, replicate Mouse 2
# [3] = 1st EXP, number of IFNg+ CD8 cells = IFNg% (w/o background) x CD8# 5464800, replicate Mouse 3
# [4] = 1st EXP, number of IFNg+ CD8 cells = IFNg% (w/o background) x CD8# 5668200, replicate Mouse 4
# [5] = 1st EXP, number of IFNg+ CD8 cells = IFNg% (w/o background) x CD8# 5724000, replicate Mouse 5
# [6] = 1st EXP, number of IFNg+ CD8 cells = IFNg% (w/o background) x CD8# 6077000, replicate Mouse 1
# [7] = 2nd EXP, number of IFNg+ CD8 cells per spleen (CD8# 2541000), Mouse 5
# [8] = 2nd EXP, number of IFNg+ CD8 cells per spleen (CD8# 2956300), Mouse 4
# [9] = 2nd EXP, number of IFNg+ CD8 cells per spleen (CD8# 3816800), Mouse 1
# [10] = 2nd EXP, number of IFNg+ CD8 cells per spleen (CD8# 4765200), Mouse 3
# [11] = 2nd EXP, number of IFNg+ CD8 cells per spleen (CD8# 5219500), Mouse 2
# [12] = 2nd EXP, number of IFNg+ CD8 cells per spleen (CD8# 5392600), Mouse 6
# [13] = Measured IC50 of each peptide, H-2K^b
# [14] = Measured IC50 of each peptide, H-2D^b
# [15] = epitopes labelled Kb, file clean_file9_IC50, unit inferred, read-out: IC50
Compound,IC50 (H-2K^b; [13]) [nM],IC50 (H-2D^b; [14]) [nM],further results
19 (CFKFDHL) [compound 19],–,–,IFNg# (splenic CD8^+ T cells; [2]): 34310.2; IFNg# (splenic CD8^+ T cells; [3]): 27968.8; IFNg# (splenic CD8^+ T cells; [4]): 21326.6; IFNg# (splenic CD8^+ T cells; [5]): 46581.9; IFNg# (splenic CD8^+ T cells; [6]): 28197.3; IFNg# (splenic CD8^+ T cells; [7]): 17050.1; IFNg# (splenic CD8^+ T cells; [8]): 2143.61; IFNg# (splenic CD8^+ T cells; [9]): 22289; IFNg# (splenic CD8^+ T cells; [10]): 7728.2; IFNg# (splenic CD8^+ T cells; [11]): 8361.64; IFNg# (splenic CD8^+ T cells; [12]): 5535.5
SSLPYQNI [HA304–311],4.7,> 40000,–
2 (TLTSANHA[Met(O)]I) [compound 2],–,–,IFNg# (splenic CD8^+ T cells; [2]): 1002.82; IFNg# (splenic CD8^+ T cells; [3]): 6300.91; IFNg# (splenic CD8^+ T cells; [4]): 49270.8; IFNg# (splenic CD8^+ T cells; [5]): 453.913; IFNg# (splenic CD8^+ T cells; [6]): 8544.26; IFNg# (splenic CD8^+ T cells; [7]): -2541; IFNg# (splenic CD8^+ T cells; [8]): 765.09; IFNg# (splenic CD8^+ T cells; [9]): 334.733; IFNg# (splenic CD8^+ T cells; [10]): 3334.69; IFNg# (splenic CD8^+ T cells; [11]): 2635.85; IFNg# (splenic CD8^+ T cells; [12]): -650.348
SSYRRPVGI [PB1_703–711],1.9,29000,–
SGPDNGAVAVL [NA181–191],585,64,–
SGPDNGAVAV [NA181–190],262,65,–
LSLRNPILV [PB1-F2_62–70],12400,18,–
SFQDILLRM [NS2_8–16],185,10700,–
AGLKNDLLENL [M1_227–237],3310,5280,–
NGITNKVNTVI [HA389–399],22000,118,–
HA-41-49 (VTVTHSVNL),–,–,"IC50 [1]: 872 nM; CTL response, ICS (splenic CD8^+ T cells; Mouse1): 14900.8; CTL response, ICS (splenic CD8^+ T cells; Mouse2): 4695.13; CTL response, ICS (splenic CD8^+ T cells; Mouse3): 8913.09; CTL response, ICS (splenic CD8^+ T cells; Mouse4): 22267.5; CTL response, ICS (splenic CD8^+ T cells; Mouse5): 32844.3; CTL response, ICS (splenic CD8^+ T cells; Mouse11): 2884.36; CTL response, ICS (splenic CD8^+ T cells; Mouse12): 3836.33; CTL response, ICS (splenic CD8^+ T cells; Mouse13): 2696.15; CTL response, ICS (splenic CD8^+ T cells; Mouse14): 546.324; CTL response, ICS (splenic CD8^+ T cells; Mouse15): 0; CTL response, ICS (splenic CD8^+ T cells; Mouse16): 865.512"
KNMEYDAV [PB1_653–660],156,> 40000,–
SQLKNNAKEI [HA467–476],> 40000,173,–
VTVTHSVNL [HA41–49],7.9,872,–
YQNIHPVTI [HA308–316],1140,1970,–
SSLENFRAYV [PA224–233],38,0.16,–
SSLENFRAYV [PA-224-233Db],–,–,"IC50 (H-2D^b; epitopes labelled Db, file clean_file9_IC50, unit inferred, read-out: IC50): 0.155 nM"
VYIEVLHL [PB2_227–234],2.8,20900,–
RTFSFQLI [NS2_114–121],4.7,> 40000,–
VYIEVLHL [PB2-227-234Kb],–,–,IC50 (H-2K^b; [15]): 2.77 nM
IGRFYIQM [NP36–43],1.9,3300,–
SSYRRPVGI [PB1-703-711Kb],–,–,IC50 (H-2K^b; [15]): 1.94 nM
CC[C@H](C)[C@H](NC(=O)[C@H](CC(N)=O)NC(=O)[C@@H](N)CCSC)C(=O)N[C@@H](CCC(N)=O)C(=O)N[C@@H](Cc1ccccc1)C(=O)N[C@H](C(=O)N[C@@H](C)C(=O)N[C@H](C(=O)O)C(C)C)[C@@H](C)O [HA402–409],3,6180,–
MGLIYNRM [M1_128–135],92.6,> 40000,–
CSCC[C@H](NC(=O)[C@@H](NC(=O)[C@H](CCC(=O)O)NC(=O)[C@H](CCSC)NC(=O)[C@H](CC(N)=O)NC(=O)[C@H](CCC(=O)O)NC(=O)[C@H](CC(N)=O)NC(=O)[C@H](CO)NC(=O)[C@H](C)N)[C@@H](C)O)C(=O)O [NP366–374],> 40000,18,–
